Laboratory results published in PubChem BioAssay AID1919016 (Molecular Pharmacology Branch, DTP, NCI, 2023).
Values joined by “and” are separate entries in the source; they are usually repeats but may differ in a detail not shown here. Equal entries are not always repeated.

Test system: NCI-H196 complex spheroid growth, percent test/control
Assay: Anticancer human tumor NCI-H196 cell line growth inhibition [AhR];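 also: seven days of drug exposure starting three days after plating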;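 as to viability, T/C: 100% = DMSO vehicle control wells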
Settings: for viability, T/C: stronger effect = lower value
From the text: Multicellular complex tumor spheroid response to aryl hydrocarbon receptor antagonists in combination with a variety of drugs and investigational agents in selected tumor cell lines
The current study was undertaken to assess response to aryl hydrocarbon receptor antagonists in combination with standard-of-care drugs and investigational agents in solid tumor complex spheroid models. Complex spheroids include a stromal component modeled by human endothelial cells (HUVEC) and fibroblasts modeled by human mesenchymal stem cells (MSCs). The concentration ranges selected for each drug and investigational agent were based upon clinically achievable concentrations if the clinical Cmax of the agent was known.
Compounds. The drugs and investigational agents: BAY 2416964 (NSC825713), GNF351 (NSC835774), CH-223191 (NSC835775), CPI-455 (NSC825282), aza-TdCyd (NSC777586), decitabine (NSC127716), belinostat (NSC758774), entinostat (NSC756642), pevonedistat (NSC761192), tazemetostat (NSC777109), talazoparib (NSC765396), olaparib (NSC753686), selinexor (NSC780203), nedisertib (M3814, NSC802822), bortezomib (NSC756655), venetoclax (NSC766270), doxorubicin (NSC123127), elimusertib (BAY189344, NSC800525), ceralasertib (AZD6738, NSC777638), TAK-243 (NSC785004), alisertib (NSC759677), etoposide (NSC141540), topotecan (NSC609699), eribulin (NSC707389), gemcitabine (NSC613327), carboplatin (NSC241240), cisplatin (NSC119875), and SN-38 (NSC673596) were obtained from the National Cancer Institute (NCI) Developmental Therapeutics Program Chemical Repository (32). The FDA-approved anticancer drug set is available from the Developmental Therapeutics Program at https://dtp.cancer.gov/organization/dscb/obtaining/available plates.htm. […] The stock solutions were prepared in dimethyl sulfoxide (DMSO, Sigma-Aldrich, St. Louis, MO, cat. D2650), except for the platinum compounds which were prepared in saline (Quality Biological, Gaithersburg, MD, cat. 114-055-101), at 800-fold the tested concentration and stored at -70 degrees C prior to their use. All drugs and investigational agents were tested over a range starting from a high concentration at or near the clinical Cmax and decreasing in half-log increments. If the clinical Cmax for an agent had not been determined, the highest concentration tested was 10 microM (Table 1).
Cell Culture. All cells were maintained in an incubator at 37 degrees C and 5% CO2 with 95% humidity. The PDC lines were cultured according to standard operating procedures established by the NCI PDMR (https://pdmr.cancer.gov). Briefly, all PDCs were thawed and cultured in Matrigel-coated flasks prepared with a working solution of 1X Ham's F-12 nutrient mix, without supplementation (Invitrogen, Waltham, MA, cat. 11765054), 100 U/mL penicillin-streptomycin (Invitrogen, cat. 15140122), and 2.5% Matrigel (Corning Inc., Corning, NY, cat. 354248) for the first three passages. All PDCs were cultured in complete DMEM/F-12 media containing advanced DMEM/F-12 (Invitrogen, cat. 12634028), 4.9% defined fetal bovine serum, heat inactivated (HyClone Laboratories Inc., Logan, UT, cat. SH30070.03HI), 389 ng/mL hydrocortisone (Sigma-Aldrich, cat. H4001), 9.7 ng/mL human EGF recombinant protein (Invitrogen, cat. PHG0313), 23.4 microg/mL adenine (Sigma-Aldrich, cat. A2786), 97.3 U/mL penicillin-streptomycin (Invitrogen, cat. 15140122), 1.9 mM L-glutamine (Invitrogen, cat. 25030081), and 9.7 microM Y-27632 dihydrochloride (Tocris Bioscience, Bristol, United Kingdom, cat. 1254). The PDCs were cultured in complete DMEM/F12 media without 10 microM Y-27632 dihydrochloride for at least two passages prior to the screen. The established cell lines NCI-H1341 and […] were cultured in DMEM/F-12, HEPES (Invitrogen, cat. 11330032), 5% defined fetal bovine serum (HyClone Laboratories Inc., cat. SH30070.03), ITS premix universal culture supplement [insulin (5 microg/mL), transferrin (5 microg/mL), and selenious acid (5 ng/mL)] […]

IC50 (curve of compound)	Structure (SMILES)	viability, T/C (compound 0.0316 µM)	viability, T/C (compound 0.1 µM)	viability, T/C (compound 0.316 µM)	viability, T/C (compound 1 µM)	viability, T/C (compound 3.16 µM)	viability, T/C (compound 10 µM)	also measured
> 10 µM	NS(=O)(=O)OCC1CC(n2ccc3c(NC4CCc5ccccc54)ncnc32)CC1O (stereo not given)	78.8% and 89.8% and 79.4%	71.8% and 85.1% and 80.3%	92% and 82% and 79.9%	52.6% and 59.9% and 65.8%	74.1% and 65.6% and 55.6%	69.5% and 70.9% and 55.7%	
10 µM and > 10 µM	Nc1ccn(C2OC(CO)C(O)C2(F)F)c(=O)n1 (stereo not given)	72.3% and 95.5% and 90.8%	57.2% and 87.9% and 86.6%	46.1% and 58.9% and 65.1%	50.2% and 56.8% and 62.2%	61.4% and 61.8% and 66.2%	56.5% and 68.2% and 66.8%	
> 1 µM	Nc1ncn(C2CC(O)C(CO)O2)c(=O)n1 (stereo not given)	93.2% and 102% and 110%	97.1% and 113% and 103%	105% and 124% and 93.8%	116% and 104% and 105%			viability, T/C (compound 0.00316 µM): 110% and 113% and 104%; viability, T/C (compound 0.01 µM): 96.1% and 116% and 107%
> 0.3 µM	Nc1ncn(C2CC(O)C(CO)S2)c(=O)n1 (stereo not given)							viability, T/C (compound 0.000949 µM): 92.7% and 99.1% and 95.1%; viability, T/C (compound 0.003 µM): 107% and 97.7% and 97.9%; viability, T/C (compound 0.00949 µM): 109% (2×) and 117%; viability, T/C (compound 0.03 µM): 109% and 104% and 105%; viability, T/C (compound 0.0949 µM): 118% and 110% and 107%; viability, T/C (compound 0.3 µM): 119% and 96.8% and 117%

Further lines, the compound ahead of its results:

Structure (SMILES)	IC50 (curve of compound)	viability, T/C (compound 0.0316 µM)	viability, T/C (compound 0.1 µM)	viability, T/C (compound 0.316 µM)	viability, T/C (compound 1 µM)	viability, T/C (compound 3.16 µM)	viability, T/C (compound 10 µM)	also measured
COc1cccc2c1C(=O)c1c(O)c3c(c(O)c1C2=O)CC(O)(C(=O)CO)CC3OC1CC(N)C(O)C(C)O1 (stereo not given)	0.792 µM and 0.736 µM and 1.2 µM	95.5% and 104% and 102%	97.6% and 102% and 108%	82.6% and 76.4% and 99.2%	42.9% and 44.2% and 59%	0.87% and 1.36% and 2.64%	1.12% and 5.21% and 1.87%	
Cc1ccccc1N=Nc1ccc(NC(=O)c2ccnn2C)c(C)c1			96.4% [middle of 20 runs]	98% [middle of 20 runs]		95.8% [middle of 20 runs]	93.3% [middle of 20 runs]	IC50 (compound alone, run of 08/22/2022): > 10 µM
Cc1cncc(-c2nc(NCCc3c[nH]c4ccccc34)c3ncn(C(C)C)c3n2)c1			96.5% [middle of 20 runs]	99% [middle of 20 runs]	101% [middle of 20 runs]	106% [middle of 20 runs]		IC50 (compound alone, run of 08/16/2022): > 10 µM
Cn1ncnc1C1c2n[nH]c(=O)c3cc(F)cc(c23)NC1c1ccc(F)cc1 (stereo not given)	> 0.1 µM	94.1% and 106% and 103%	114% and 102% and 104%					viability, T/C (compound 0.000316 µM): 120% and 100% and 104%; viability, T/C (compound 0.001 µM): 104% and 99.4% and 98.5%; viability, T/C (compound 0.00316 µM): 114% and 102% and 99.6%; viability, T/C (compound 0.01 µM): 92.6% and 105% and 106%
Nc1ccccc1NC(=O)c1ccc(CNC(=O)OCc2cccnc2)cc1	0.492 µM and 0.773 µM and 0.509 µM	84.5% and 90.6% and 85.8%	73.3% and 82.2% and 79.5%	59.8% and 65.2% and 60.3%	35.9% and 48.4% and 33.5%	15.2% and 17.5% and 16.5%	0.66% and 0.89% and 0.63%	
O=C(C=Cc1cccc(S(=O)(=O)Nc2ccccc2)c1)NO	1.32 µM and 1.79 µM and 1.73 µM	93.5% and 93.7% and 104%	107% and 95.2% and 101%	78.8% and 87.2% and 93.9%	61.2% and 73.3% and 75.5%	21.6% and 27.8% and 22.7%	0.64% and 0.72% and 0.55%	
O=C(C=Cn1cnc(-c2cc(C(F)(F)F)cc(C(F)(F)F)c2)n1)NNc1cnccn1	0.0472 µM and 0.0352 µM and 0.0401 µM							viability, T/C (compound 0.00949 µM): 73.6% and 72.9% and 69.5%; viability, T/C (compound 0.03 µM): 63% and 56.7% and 62.2%; viability, T/C (compound 0.0949 µM): 29.8% and 8.08% and 13.8%; viability, T/C (compound 0.3 µM): 8.48% and 5.65% and 9.96%; viability, T/C (compound 0.949 µM): 8.74% and 6.18% and 8.91%; viability, T/C (compound 3 µM): 6.48% and 6.56% and 8.45%
O=C(c1cc(Cc2n[nH]c(=O)c3ccccc23)ccc1F)N1CCN(C(=O)C2CC2)CC1	> 10 µM	106% and 105% and 100%	105% and 112% and 108%	99.7% and 98.5% and 104%	97.2% and 98.1% and 105%	97.2% and 96.9% and 99.9%	99.7% and 103% and 99.5%	
